Measurements from patent US11897868B2, “Heterocyclic inhibitors of PCSK9” (CARDIO THERAPEUTICS PTY LTD, priority 2017, dated 2024).

Target: T1, PCSK9 and the LDL receptor (Homo sapiens, UniProt Q8NBP7)
T1 construct: purchased CircuLex CY-8150
Assay: CircuLex PCSK9-LDLR in vitro binding assay
Conditions: His-tagged PCSK9 wild type, 8 point concentration curves, absorbance 450 nm and 540 nm; for IC50: read-out: Inhibition of PCSK9-LDLR binding
Experimental: Compounds were assayed for their ability to inhibit the binding between PCSK9 and the LDL receptor using a CircuLex PCSK9-LDLR in vitro binding assay kit (Catalog #CY-8150. The procedure employed the reagents and buffers included in the kit as follows.
88 μL of 1× reaction buffer were placed into each well. 5 μL of test compounds in 20% DMSO were added into each well. 10 mM solutions of test compounds in DMSO were diluted by 3-fold series to give 8 point concentration curves. The compounds were then diluted 20-fold with the reaction buffer. To each well was then added 7 μL of His-tagged PCSK9 wild type solution (1000 ng/mL) into each well. The plate was then covered with a plate sealer and incubated at room temperature for 3 hours, shaking at 300 rpm on an orbital microplate shaker. The test solutions were washed 4 times with 350 μL wash buffer. 100 μL of biotinylated anti-His-tag monoclonal antibody was added to each well. The plate was covered with a plate sealer, and incubated at room temperature for 1 hour, shaking at 300 rpm. The test solutions were washed 4 times with 350 μL wash buffer. 100 μL of HRP-conjugated streptavidin was added to each well. The plate was covered with a plate sealer, and incubated at room temperature for 20 min, shaking at 300 rpm.
The test solutions were washed 4 times with 350 μL wash buffer. 100 μL of substrate reagent were added into each well. The plate was covered with a plate sealer, and incubated at room temperature for 15 min, shaking at 300 rpm. Finally, 100 μL of the stop solution was added to each well in the same order as the previously added substrate reagent. Absorbance was measured at 450 nm and 540 nm and IC50 curves were plotted.

T1 sequence (Q8NBP7 153-692): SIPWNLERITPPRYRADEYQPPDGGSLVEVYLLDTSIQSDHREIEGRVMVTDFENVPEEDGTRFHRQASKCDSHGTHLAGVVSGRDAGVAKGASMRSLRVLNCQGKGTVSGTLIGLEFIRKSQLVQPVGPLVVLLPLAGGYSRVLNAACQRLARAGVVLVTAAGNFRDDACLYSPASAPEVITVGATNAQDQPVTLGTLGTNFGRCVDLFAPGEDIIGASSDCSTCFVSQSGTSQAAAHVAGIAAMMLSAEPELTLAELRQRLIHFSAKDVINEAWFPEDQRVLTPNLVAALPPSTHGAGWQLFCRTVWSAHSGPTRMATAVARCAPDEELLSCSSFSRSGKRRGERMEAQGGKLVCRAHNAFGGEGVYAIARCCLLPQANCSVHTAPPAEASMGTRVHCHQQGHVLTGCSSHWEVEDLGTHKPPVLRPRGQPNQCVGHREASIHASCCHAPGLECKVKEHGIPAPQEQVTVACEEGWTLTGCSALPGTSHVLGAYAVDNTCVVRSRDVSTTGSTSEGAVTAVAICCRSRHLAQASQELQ
T1 sequence (Q8NBP7 31-152 partner limits assumed): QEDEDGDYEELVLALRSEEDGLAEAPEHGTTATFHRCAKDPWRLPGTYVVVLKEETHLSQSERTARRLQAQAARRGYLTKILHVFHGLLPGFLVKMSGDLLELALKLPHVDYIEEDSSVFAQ

Structure (SMILES)	IC50	Inhibition of PCSK9-LDLR binding (IC50 curves)
Cc1ccc(C(=O)Nc2cccc(C(F)(F)F)c2)cc1Nc1nccc(-c2cccnc2)n1 [Example 17, 4-methyl-3-((4-(pyridin-3-yl)pyrimidin-2-yl)amino)-N-(3-(trifluoromethyl)phenyl)benzamide]	> 100 µM	
Cc1ccc(C(=O)Nc2cc(-n3cnc(C)c3)cc(C(F)(F)F)c2)cc1 [Example 12, 4-methyl-N-(3-(4-methyl-1H-imidazol-1-yl)-5-(trifluoromethyl)phenyl)benzamide]	10 to 100 µM	
Cc1ccc(C(=O)Nc2cc(N3CCN(C)CC3)cc(-n3cnc(C)c3)c2)cc1 [Example 24, 4-methyl-N-(3-(4-methyl-1H-imidazol-1-yl)-5-(4-methylpiperazin-1-yl)phenyl)benzamide]	10 to 100 µM	
Cc1cn(-c2cc(NC(=O)c3ccc(C)c(C(=O)c4cccc(C#N)c4)c3)cc(N3CCN(C)CC3)c2)cn1 [Example 28, 3-(3-cyanobenzoyl)-4-methyl-N-(3-(4-methyl-1H-imidazol-1-yl)-5-(4-methylpiperazin-1-yl)phenyl)benzamide]	1 to 10 µM	
Cc1cn(-c2cc(CN3CCC[C@H](N)C3)cc(NC(=O)c3ccc(C)c(Nc4nccc(-c5ccc(F)cc5)n4)c3)c2)cn1 [Example 19, (S)—N-(3-((3-aminopiperidin-1-yl)methyl)-5-(4-methyl-1H-imidazol-1-yl)phenyl)-3-((4-(4-fluorophenyl)pyrimidin-2-yl)amino)-4-methylbenzamide]	0.1 to 1 µM	
Cc1cn(-c2cc(NC(=O)c3ccc(C)c(Nc4nccc(-c5ccc(F)cc5)n4)c3)cc(N3CCOCC3)c2)cn1 [Example 23, 3-((4-(4-fluorophenyl)pyrimidin-2-yl)amino)-4-methyl-N-(3-(4-methyl-1H-imidazol-1-yl)-5-morpholinophenyl)benzamide]	10 to 100 µM	
Cc1cn(-c2cc(CN3CCCC[C@H]3C(=O)O)cc(NC(=O)c3ccc(C)c(Nc4nccc(-c5ccc(F)cc5)n4)c3)c2)cn1 [Example 20, (S)-1-(3-(3-((4-(4-fluorophenyl)pyrimidin-2-yl)amino)-4-methylbenzamido)-5-(4-methyl-1H-imidazol-1-yl)benzyl)piperidine-2-carboxylic Acid]	10 to 100 µM	
Cc1cn(-c2cc(NC(=O)c3ccc(C)c(OCc4ccccc4)c3)cc(C(F)(F)F)c2)cn1 [Example 14, 3-(benzyloxy)-4-methyl-N-(3-(4-methyl-1H-imidazol-1-yl)-5-(trifluoromethyl)phenyl)benzamide]	10 to 100 µM	
COCCN1CCN(c2cc(NC(=O)c3ccc(C)c(Oc4ccccc4)c3)cc(-n3cnc(C)c3)c2)CC1 [Example 26, N-(3-(4-(2-methoxyethyl)piperazin-1-yl)-5-(4-methyl-1H-imidazol-1-yl)phenyl)-4-methyl-3-phenoxybenzamide]		* (Starred values refer to levels of inhibition of binding by less than 35% at the highest concentration tested, due either to solubility limitations or dynamic range limitations of the assay.)
Cc1ccc(C(=O)Nc2cccc(N3CCN(C)CC3)c2)cc1Nc1nccc(-c2ccc(F)cc2)n1 [Example 31, 3-((4-(4-fluorophenyl)pyrimidin-2-yl)amino)-4-methyl-N-(3-(4-methylpiperazin-1-yl)phenyl)benzamide]	1 to 10 µM	
Cc1cn(-c2cc(CN3CCCC[C@H]3C(N)=O)cc(NC(=O)c3ccc(C)c(Nc4nccc(-c5ccc(F)cc5)n4)c3)c2)cn1 [Example 21, (S)-1-(3-(3-((4-(4-fluorophenyl)pyrimidin-2-yl)amino)-4-methylbenzamido)-5-(4-methyl-1H-imidazol-1-yl)benzyl)piperidine-2-carboxamide]	1 to 10 µM	
Cc1cn(-c2cc(NC(=O)c3ccc(C)c(Oc4ccccc4)c3)cc(C(F)(F)F)c2)cn1 [Example 13, 4-methyl-N-(3-(4-methyl-1H-imidazol-1-yl)-5-(trifluoromethyl)phenyl)-3-phenoxybenzamide]	10 to 100 µM	
Cc1cc(-c2cc(NC(=O)c3ccc(C)c(Nc4nccc(-c5ccc(F)cc5)n4)c3)cc(N3CCN(C)CC3)c2)on1 [Example 29, 3-((4-(4-fluorophenyl)pyrimidin-2-yl)amino)-4-methyl-N-(3-(3-methylisoxazol-5-yl)-5-(4-methylpiperazin-1-yl)phenyl)benzamide]	10 to 100 µM	

Now from value to compound, other results behind:

IC50	Structure (SMILES)	Inhibition of PCSK9-LDLR binding (IC50 curves)
10 to 100 µM	Cc1cn(-c2cc(/C=C/C(=O)O)cc(NC(=O)c3ccc(C)c(Nc4nccc(-c5ccccc5)n4)c3)c2)cn1 [Example 8, (E)-3-(3-(4-methyl-1H-imidazol-1-yl)-5-(4-methyl-3-((4-phenylpyrimidin-2-yl)amino)benzamido)phenyl)acrylic Acid]	
10 to 100 µM	Cc1cn(-c2cc(NC(=O)c3ccc(C)c(Nc4nccc(-c5ccccn5)n4)c3)cc(C(F)(F)F)c2)cn1 [Example 1, 4-methyl-N-(3-(4-methyl-1H-imidazol-1-yl)-5-(trifluoromethyl)phenyl)-3-((4-(pyridin-2-yl)pyrimidin-2-yl)amino)benzamide]	
1 to 10 µM	Cc1cn(-c2cc(CCC(=O)O)cc(NC(=O)c3ccc(C)c(Nc4nccc(-c5ccccc5)n4)c3)c2)cn1 [Example 9, 3-(3-(4-methyl-1H-imidazol-1-yl)-5-(4-methyl-3-((4-phenylpyrimidin-2-yl)amino)benzamido)phenyl)propanoic Acid]	
0.1 to 1 µM	Cc1cn(-c2cc(NC(=O)c3ccc(C)c(Nc4nccc(-c5ccccc5)n4)c3)cc(N3CCNCC3)c2)cn1 [Example 5, 4-methyl-N-(3-(4-methyl-1H-imidazol-1-yl)-5-(piperazin-1-yl)phenyl)-3-((4-phenylpyrimidin-2-yl)amino)benzamide]	
1 to 10 µM	Cc1cn(-c2cc(N3C(=O)c4cc(C)c(Nc5nccc(-c6cccnc6)n5)cc4C3=O)cc(C(F)(F)F)c2)cn1 [Example 18, 5-methyl-2-(3-(4-methyl-1H-imidazol-1-yl)-5-(trifluoromethyl)phenyl)-6-((4-(pyridin-3-yl)pyrimidin-2-yl)amino)isoindoline-1,3-dione]	
0.1 to 1 µM	Cc1cn(-c2cc(CN3CCN(C)CC3)cc(NC(=O)c3ccc(C)c(Nc4nccc(-c5ccccc5)n4)c3)c2)cn1 [Example 7, 4-methyl-N-(3-(4-methyl-1H-imidazol-1-yl)-5-((4-methylpiperazin-1-yl)methyl)phenyl)-3-((4-phenylpyrimidin-2-yl)amino)benzamide]	
10 to 100 µM	Cc1cn(-c2cc(CCS(N)(=O)=O)cc(NC(=O)c3ccc(C)c(Nc4nccc(-c5ccccc5)n4)c3)c2)cn1 [Example 10, 4-methyl-N-(3-(4-methyl-1H-imidazol-1-yl)-5-(2-sulfamoylethyl)phenyl)-3-((4-phenylpyrimidin-2-yl)amino)benzamide]	
10 to 100 µM	Cc1cn(-c2cc(NS(=O)(=O)c3ccc(C)c(Nc4nccc(-c5ccccc5)n4)c3)cc(C(F)(F)F)c2)cn1 [Example 15, 4-methyl-N-(3-(4-methyl-1H-imidazol-1-yl)-5-(trifluoromethyl)phenyl)-3-((4-phenylpyrimidin-2-yl)amino)benzenesulfonamide]	
1 to 10 µM	CCCCc1cc(NC(=O)c2ccc(C)c(Nc3nccc(-c4ccccc4)n3)c2)cc(-n2cnc(C)c2)c1 [Example 11, N-(3-butyl-5-(4-methyl-1H-imidazol-1-yl)phenyl)-4-methyl-3-((4-phenylpyrimidin-2-yl)amino)benzamide]	
1 to 10 µM	Cc1cn(-c2cc(NC(=O)c3ccc(C)c(Nc4nccc(-c5ccccc5)n4)c3)cc(C(F)(F)F)c2)cn1 [Example 3, 4-methyl-N-(3-(4-methyl-1H-imidazol-1-yl)-5-(trifluoromethyl)phenyl)-3-((4-phenylpyrimidin-2-yl)amino)benzamide]	
10 to 100 µM	CC(=O)Nc1ccnc(Nc2cc(C(=O)Nc3cc(-n4cnc(C)c4)cc(C(F)(F)F)c3)ccc2C)n1 [Example 16, 3-((4-acetamidopyrimidin-2-yl)amino)-4-methyl-N-(3-(4-methyl-1H-imidazol-1-yl)-5-(trifluoromethyl)phenyl)benzamide]	
1 to 10 µM	Cc1cn(-c2cc(NC(=O)c3ccc(C)c(Nc4nccc(-c5ccncc5)n4)c3)cc(C(F)(F)F)c2)cn1 [Example 2, 4-methyl-N-(3-(4-methyl-1H-imidazol-1-yl)-5-(trifluoromethyl)phenyl)-3-((4-(pyridin-4-yl)pyrimidin-2-yl)amino)benzamide]	
0.1 to 1 µM	Cc1cn(-c2cc(NC(=O)c3ccc(C)c(Nc4nccc(-c5ccccc5)n4)c3)cc(N3CCN(C)CC3)c2)cn1 [Example 6, 4-methyl-N-(3-(4-methyl-1H-imidazol-1-yl)-5-(4-methylpiperazin-1-yl)phenyl)-3-((4-phenylpyrimidin-2-yl)amino)benzamide]	
10 to 100 µM	Cc1cn(-c2cc(NC(=O)c3ccc(C)c(Nc4ncccn4)c3)cc(C(F)(F)F)c2)cn1 [Example 4, 4-methyl-N-(3-(4-methyl-1H-imidazol-1-yl)-5-(trifluoromethyl)phenyl)-3-(pyrimidin-2-ylamino)benzamide]	
